Assay results reported in the NIST ThermoML archive (doi:10.1016/j.fluid.2018.08.012).
Values joined by “and” are separate entries in the source; they are usually repeats but may differ in a detail not shown here. Equal entries are not always repeated.

Experiment: mn = molality of the nth substance listed, in mol/kg
Details: Fluid (supercritical or subcritical phases), Vibrating tube method

S=C=S [carbon disulfide] + O=C=O
m1 = 0.2322
Details | mass density
324.09 K, 5020 kPa | 107.03 kg/m3
324.09 K, 5037.7 kPa | 107.14 kg/m3
324.09 K, 7541 kPa | 199.79 kg/m3
324.09 K, 7551.5 kPa | 199.54 kg/m3
324.09 K, 10053 kPa | 403.53 kg/m3
324.09 K, 10060 kPa | 402.21 kg/m3
324.09 K, 12570 kPa | 624.02 kg/m3
324.09 K, 12604 kPa | 625.07 kg/m3
324.09 K, 15125 kPa | 707.48 kg/m3
324.09 K, 15142 kPa | 707.56 kg/m3
324.09 K, 17653 kPa | 755.16 kg/m3
324.09 K, 17669 kPa | 755.21 kg/m3
324.09 K, 20182 kPa | 789.28 kg/m3
324.09 K, 20197 kPa | 789.34 kg/m3
324.09 K, 22699 kPa | 815.92 kg/m3
324.09 K, 22712 kPa | 815.94 kg/m3
324.09 K, 25212 kPa | 837.95 kg/m3
324.09 K, 25226 kPa | 837.97 kg/m3
324.09 K, 27728 kPa | 856.85 kg/m3
324.09 K, 27741 kPa | 856.86 kg/m3
324.09 K, 30237 kPa | 873.42 kg/m3
324.09 K, 30252 kPa | 873.43 kg/m3
324.09 K, 32734 kPa | 888.17 kg/m3
324.09 K, 32750 kPa | 888.17 kg/m3
324.09 K, 35219 kPa | 901.47 kg/m3
324.09 K, 35227 kPa | 901.44 kg/m3
349.43 K, 5049.6 kPa | 92.26 kg/m3
349.43 K, 5059.9 kPa | 92.17 kg/m3
349.43 K, 7561.3 kPa | 154.46 kg/m3
349.43 K, 7565.2 kPa | 155.4 kg/m3
349.43 K, 10072 kPa | 237.91 kg/m3
349.43 K, 10079 kPa | 236.77 kg/m3
349.43 K, 12659 kPa | 351.82 kg/m3
349.43 K, 12682 kPa | 350.77 kg/m3
349.43 K, 15194 kPa | 474.54 kg/m3
349.43 K, 15210 kPa | 471.73 kg/m3
349.43 K, 17724 kPa | 568.76 kg/m3
349.43 K, 17738 kPa | 565.77 kg/m3
349.43 K, 20245 kPa | 633.49 kg/m3
349.43 K, 20260 kPa | 630.9 kg/m3
349.43 K, 22769 kPa | 680.4 kg/m3
349.43 K, 22783 kPa | 678.14 kg/m3
349.43 K, 25280 kPa | 716.41 kg/m3
349.43 K, 25300 kPa | 714.54 kg/m3
349.43 K, 27790 kPa | 745.77 kg/m3
349.43 K, 27805 kPa | 744.03 kg/m3
349.43 K, 30301 kPa | 770.42 kg/m3
349.43 K, 30313 kPa | 768.82 kg/m3
349.43 K, 32807 kPa | 791.68 kg/m3
349.43 K, 32815 kPa | 790.19 kg/m3
349.43 K, 35294 kPa | 808.86 kg/m3
349.43 K, 35296 kPa | 810.28 kg/m3
374.78 K, 5066.1 kPa | 82.47 kg/m3
374.78 K, 5070.7 kPa | 82.42 kg/m3
374.78 K, 7581.5 kPa | 133.35 kg/m3
374.78 K, 7585 kPa | 133.32 kg/m3
374.78 K, 10086 kPa | 191.97 kg/m3
374.78 K, 10088 kPa | 191.92 kg/m3
374.78 K, 15040 kPa | 335.44 kg/m3
374.78 K, 15062 kPa | 335.78 kg/m3
374.78 K, 17568 kPa | 413.55 kg/m3
374.78 K, 17587 kPa | 413.86 kg/m3
374.78 K, 20094 kPa | 484.4 kg/m3
374.78 K, 20111 kPa | 484.48 kg/m3
374.78 K, 22615 kPa | 543.66 kg/m3
374.78 K, 22634 kPa | 543.72 kg/m3
374.78 K, 25138 kPa | 592.09 kg/m3
374.78 K, 25153 kPa | 592 kg/m3
374.78 K, 27657 kPa | 631.81 kg/m3
374.78 K, 27672 kPa | 631.68 kg/m3
374.78 K, 30176 kPa | 665.02 kg/m3
374.78 K, 30185 kPa | 664.78 kg/m3
374.78 K, 32689 kPa | 693.03 kg/m3
374.78 K, 32690 kPa | 693.42 kg/m3
374.78 K, 35184 kPa | 717.46 kg/m3
374.78 K, 35192 kPa | 717.92 kg/m3
400.5 K, 5077 kPa | 75.32 kg/m3
400.5 K, 5080.3 kPa | 74.8 kg/m3
400.5 K, 7594.6 kPa | 118.07 kg/m3 and 118.35 kg/m3
400.5 K, 10099 kPa | 166.1 kg/m3
400.5 K, 10100 kPa | 165.54 kg/m3
400.5 K, 15048 kPa | 272.65 kg/m3
400.5 K, 15074 kPa | 273.42 kg/m3
400.5 K, 17570 kPa | 330.78 kg/m3
400.5 K, 17602 kPa | 331.7 kg/m3
400.5 K, 20096 kPa | 388.17 kg/m3
400.5 K, 20129 kPa | 389.15 kg/m3
400.5 K, 22617 kPa | 441.87 kg/m3
400.5 K, 22654 kPa | 442.82 kg/m3
400.5 K, 25139 kPa | 490.19 kg/m3
400.5 K, 25176 kPa | 491.09 kg/m3
400.5 K, 27660 kPa | 532.79 kg/m3
400.5 K, 27688 kPa | 533.55 kg/m3
400.5 K, 30177 kPa | 569.95 kg/m3
400.5 K, 30206 kPa | 570.64 kg/m3
400.5 K, 32686 kPa | 602.4 kg/m3
400.5 K, 32712 kPa | 602.99 kg/m3
400.5 K, 35192 kPa | 631.01 kg/m3
400.5 K, 35205 kPa | 631.44 kg/m3

O=O [oxygen] + O=C=O
m1 = 0.2867
Details | mass density [kg/m3]
324.14 K, 2522.5 kPa | 45.49
324.14 K, 2531.8 kPa | 45.7
324.14 K, 4992.7 kPa | 102.94
324.14 K, 4998.9 kPa | 103.15
324.14 K, 7566.1 kPa | 190.74
324.14 K, 7573.3 kPa | 191.05
324.14 K, 10066 kPa | 353.17
324.14 K, 10098 kPa | 356.14
324.14 K, 12475 kPa | 568.33
324.14 K, 12572 kPa | 574.14
324.14 K, 15029 kPa | 672.53
324.14 K, 15098 kPa | 674.53
324.14 K, 17553 kPa | 728.46
324.14 K, 17623 kPa | 729.72
324.14 K, 20076 kPa | 766.9
324.14 K, 20148 kPa | 767.83
324.14 K, 22597 kPa | 796.51
324.14 K, 22667 kPa | 797.24
324.14 K, 25116 kPa | 820.6
324.14 K, 25186 kPa | 821.19
324.14 K, 27631 kPa | 841.02
324.14 K, 27694 kPa | 841.49
324.14 K, 30138 kPa | 858.75
324.14 K, 30191 kPa | 859.1
324.14 K, 32647 kPa | 874.55
324.14 K, 32683 kPa | 874.75
324.14 K, 35167 kPa | 888.83
324.14 K, 35203 kPa | 889.04
349.64 K, 2302.3 kPa | 37.34
349.64 K, 2512.6 kPa | 41.14
349.64 K, 4999.4 kPa | 89.28
349.64 K, 5056.2 kPa | 90.61
349.64 K, 7565.3 kPa | 151.08
349.64 K, 7587.3 kPa | 151.35
349.64 K, 10124 kPa | 230.35
349.64 K, 10132 kPa | 230.46
349.64 K, 12648 kPa | 331.76
349.64 K, 12654 kPa | 331.87
349.64 K, 15179 kPa | 445.16
349.64 K, 15184 kPa | 445.19
349.64 K, 17705 kPa | 539.74
349.64 K, 17709 kPa | 539.82
349.64 K, 20232 kPa | 608.22
349.64 K, 20234 kPa | 608.3
349.64 K, 22753 kPa | 658.24
349.64 K, 22754 kPa | 658.22
349.64 K, 25272 kPa | 696.75
349.64 K, 25273 kPa | 696.87
349.64 K, 27781 kPa | 727.9
349.64 K, 27787 kPa | 728.07
349.64 K, 30280 kPa | 753.96
349.64 K, 30284 kPa | 754.07
349.64 K, 32783 kPa | 776.37
349.64 K, 32788 kPa | 776.48
349.64 K, 35276 kPa | 795.97
349.64 K, 35282 kPa | 796.06
375.03 K, 2543.1 kPa | 38.14
375.03 K, 2546.2 kPa | 38.31
375.03 K, 5059.3 kPa | 80.85
375.03 K, 5060.3 kPa | 80.97
375.03 K, 7540.3 kPa | 129.17
375.03 K, 7545.1 kPa | 129.65
375.03 K, 10091 kPa | 186.78
375.03 K, 10093 kPa | 186.66
375.03 K, 12606 kPa | 251.89
375.03 K, 12615 kPa | 252.03
375.03 K, 15138 kPa | 324.48
375.03 K, 15156 kPa | 324.83
375.03 K, 17663 kPa | 398.41
375.03 K, 17683 kPa | 398.81
375.03 K, 20185 kPa | 466.78
375.03 K, 20209 kPa | 467.22
375.03 K, 22704 kPa | 525.43
375.03 K, 22730 kPa | 525.92
375.03 K, 25225 kPa | 574.34
375.03 K, 25249 kPa | 574.81
375.03 K, 27742 kPa | 614.94
375.03 K, 27764 kPa | 615.3
375.03 K, 30257 kPa | 648.94
375.03 K, 30265 kPa | 649.12
375.03 K, 32764 kPa | 678.12
375.03 K, 32769 kPa | 678.04
375.03 K, 35257 kPa | 703.36
375.03 K, 35260 kPa | 703.21
400.19 K, 2573.8 kPa | 35.12
400.19 K, 2574.8 kPa | 35.31
400.19 K, 5072.3 kPa | 73.3
400.19 K, 5100.4 kPa | 73.64
400.19 K, 7612.6 kPa | 115.55
400.19 K, 7616.5 kPa | 115.71
400.19 K, 10127 kPa | 162.27
400.19 K, 10138 kPa | 162.47
400.19 K, 12592 kPa | 211.79
400.19 K, 12600 kPa | 212.51
400.19 K, 15121 kPa | 265.98
400.19 K, 15134 kPa | 266.82
400.19 K, 17648 kPa | 321.85
400.19 K, 17661 kPa | 322.66
400.19 K, 20173 kPa | 377.08
400.19 K, 20186 kPa | 377.95
400.19 K, 22693 kPa | 429.17
400.19 K, 22707 kPa | 430.08
400.19 K, 25212 kPa | 476.61
400.19 K, 25228 kPa | 477.53
400.19 K, 27728 kPa | 518.93
400.19 K, 27743 kPa | 519.82
400.19 K, 30241 kPa | 556.24
400.19 K, 30253 kPa | 557.1
400.19 K, 32739 kPa | 588.97
400.19 K, 32757 kPa | 589.89
400.19 K, 35235 kPa | 617.97
400.19 K, 35247 kPa | 618.78
